In US20080033026A1, “Antimicrobial compositions, methods and systems” (priority 2006, published 2008):

Tested on: Campylobacter jejuni (ATCC 29428)
Assay: Preservative effectiveness on food pathogens (US Pharmacopoeia 23)
Format: cell-based
Method: The effectiveness of 9-decenoic acid on food pathogens was determined using the protocol on preservative effectiveness found in the US Pharmacopoeia 23, 1995.
Stock cultures of the Listeria monocytogenes (ATCC 1911-1), Salmonella enteritidis (ATCC 13076) and Campylobacter jejuni (ATCC 29428) were transferred for at least three consecutives days on Trypticase Soy Agar (TSA) and incubated at 30-35° C. for 18-24 hours. On the day of the test, the cells were washed from the agar surface with sterile saline containing 0.05% w/v Polysorbate 80 (SS+) and the suspension was centrifuged at 2000 rpm for 15 minutes and resuspended in SS+. The suspension was diluted to approximately 10^8 CFU/ml.
[…] The samples were dispensed in 20 ml aliquots in sterile test tubes. For each concentration tested, a 0.1 ml aliquot of each inoculum was added to a final concentration of 10^5 to 10^6 CFU/ml. The tubes were incubated at room temperature and sampled on days 0, 1, 2, 4, 7, 14, 21 and 28.
At each sample point, 1.0 ml aliquots were withdrawn, serially diluted and plated in triplicate on TSA. The plates were incubated at 30-35° C. for 2-4 days. The colonies were counted and the average CFU/ml was calculated. Controls for purity, viability and sterility were performed as described previously.
According to the US Pharmacopoeia, a test compound is an effective preservative if the concentrations of viable bacteria remain at or below the initial concentrations during the first fourteen days and after 28 days.
Additionally, test organisms in Tables 9-11 were exposed to the 9-decenoic acid for several minutes before analysis at Day 0. As shown in the Tables 9-11, significant biocidal activity was observed even within this short time period for the test organisms, illustrating the effectiveness of 9-decenoic acid as a biocidal agent.

**Q.** `C=CCCCCCCCC(=O)O` [9-decenoic acid] was tested. Which Log reduction (0.0078% 9-decenoic acid, exposure day 0) did it give?
**A.** Its Log reduction is 0 log.

**Q.** What about the Log reduction (0.0078% 9-decenoic acid, exposure day 1) of the same compound?
**A.** The Log reduction was 0.67 log.

**Q.** And the Log reduction (0.0078% 9-decenoic acid, exposure day 2)?
**A.** Its Log reduction is 5.1 log.

**Q.** And the Log reduction (0.0078% 9-decenoic acid, exposure day 4)?
**A.** The Log reduction was 5.1 log.

**Q.** And the Log reduction (0.0078% 9-decenoic acid, exposure day 7)?
**A.** The Log reduction was 5.1 log.

**Q.** And the Log reduction (0.0078% 9-decenoic acid, exposure day 14)?
**A.** Its Log reduction is 5.1 log.

**Q.** What about the Log reduction (0.0078% 9-decenoic acid, exposure day 21) of the same compound?
**A.** Its Log reduction is 5.1 log.

**Q.** What about the Log reduction (0.0078% 9-decenoic acid, exposure day 28) of the same compound?
**A.** Its Log reduction is 5.1 log.

**Q.** And the Log reduction (0.015% 9-decenoic acid, exposure day 0)?
**A.** Its Log reduction is 2.8 log.

**Q.** And the Log reduction (0.015% 9-decenoic acid, exposure day 1)?
**A.** The Log reduction was 5.1 log.

**Q.** What about the Log reduction (0.015% 9-decenoic acid, exposure day 2) of the same compound?
**A.** Its Log reduction is 5.1 log.

**Q.** And the Log reduction (0.015% 9-decenoic acid, exposure day 4)?
**A.** Its Log reduction is 5.1 log.

**Q.** What about the Log reduction (0.015% 9-decenoic acid, exposure day 7) of the same compound?
**A.** The Log reduction was 5.1 log.

**Q.** And the Log reduction (0.015% 9-decenoic acid, exposure day 14)?
**A.** The Log reduction was 5.1 log.

**Q.** And the Log reduction (0.015% 9-decenoic acid, exposure day 21)?
**A.** The Log reduction was 5.1 log.

**Q.** What about the Log reduction (0.015% 9-decenoic acid, exposure day 28) of the same compound?
**A.** The Log reduction was 5.1 log.

**Q.** And the Log reduction (0.03% 9-decenoic acid, exposure day 0)?
**A.** The Log reduction was 5.1 log.

**Q.** And the Log reduction (0.03% 9-decenoic acid, exposure day 1)?
**A.** Its Log reduction is 5.1 log.

**Q.** What about the Log reduction (0.03% 9-decenoic acid, exposure day 2) of the same compound?
**A.** The Log reduction was 5.1 log.

**Q.** What about the Log reduction (0.03% 9-decenoic acid, exposure day 4) of the same compound?
**A.** The Log reduction was 5.1 log.

**Q.** And the Log reduction (0.03% 9-decenoic acid, exposure day 7)?
**A.** Its Log reduction is 5.1 log.

**Q.** And the Log reduction (0.03% 9-decenoic acid, exposure day 14)?
**A.** Its Log reduction is 5.1 log.

**Q.** What about the Log reduction (0.03% 9-decenoic acid, exposure day 21) of the same compound?
**A.** Its Log reduction is 5.1 log.

**Q.** And the Log reduction (0.03% 9-decenoic acid, exposure day 28)?
**A.** Its Log reduction is 5.1 log.

**Q.** And the “Concentration at which effective preservative” value (US Pharmacopoeia definition, 28 days)?
**A.** Its value is no more than 0.0078%.

**Q.** What about the “Exposure time at which bactericidal” value (at 0.0015%) of the same compound?
**A.** The value was 1 days.

**Q.** And the “Exposure time at which bactericidal” value (at 0.0078%)?
**A.** The value was 2 days.

**Q.** And the “Exposure time at which bactericidal” value (for 0.003%)?
**A.** Its value is 0 days.
